The source of these data is patent US20250313572A1, “MACROCYCLIC MCL-1 INHIBITORS AND METHODS OF USE” (AbbVie Inc., priority 2017, published 2025).

In one experiment the target is GST-MCL-1 (Homo sapiens, UniProt Q07820). Description: TR-FRET MCL-1 binding assay (competition with probe F-Bak). The method in brief: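 Displacement of F-Bak from GST-MCL-1 is detected by time-resolved FRET with a Tb-labelled anti-GST antibody, with excitation 340/35 nm and emission 520/525 and 495/510 nm, after 2 hours at room temperature. Compounds were titrated in 11 three-fold steps starting at 25 μM final, in buffer alone or in 10% HS.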
In general terms: Time-resolved FRET reads energy transfer from a long-lived donor to a nearby acceptor.

Experiment [1] concerns AMO-1 human multiple myeloma tumor cell line. Put plainly: AMO-1 cell viability assay (CellTiter-Glo, 24 hours). It is filed as cell-based. To be noted: Homo sapiens, AMO1, 24 h, read-out: AMO-1 Viability IC50 (μM, 10% FBS), 10% FBS, 24 hours of compound treatment. For orientation: In ATP-based viability assays light output follows the ATP content of the culture.
Experiment [2] concerns NCI-H929 human multiple myeloma tumor cell line. Description: NCI-H929 cell viability assay (CellTiter-Glo, 24 hours). It is filed as cell-based. As to conditions: Homo sapiens, NCI-H929, 24 h, read-out: H929 Viability IC50 (μM, 10% FBS), 10% FBS, 24 hours of compound treatment.
Where [3] appears, read: MCL-1 Binding Ki (nM, 10% HS), in the presence of 10% HS (human serum).
Setting [4] is: without HS, read-out: MCL-1 Binding Ki.

The term Ki denotes the equilibrium dissociation constant of an inhibitor or competing ligand from its target. For orientation: IC50 means the concentration at which inhibition is half-maximal.

Where two headings read alike, the source gives them in different places.

GST-MCL-1, sequence (Q07820 whole entry): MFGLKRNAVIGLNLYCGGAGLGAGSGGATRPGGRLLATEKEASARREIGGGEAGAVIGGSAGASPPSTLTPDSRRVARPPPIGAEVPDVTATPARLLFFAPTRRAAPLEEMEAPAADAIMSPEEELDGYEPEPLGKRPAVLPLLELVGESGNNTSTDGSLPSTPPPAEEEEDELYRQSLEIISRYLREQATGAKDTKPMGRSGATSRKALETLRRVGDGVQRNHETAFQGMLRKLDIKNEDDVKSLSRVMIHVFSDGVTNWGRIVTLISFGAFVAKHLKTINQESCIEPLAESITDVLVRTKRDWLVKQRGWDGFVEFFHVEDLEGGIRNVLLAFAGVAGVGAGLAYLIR

Turning to `Cc1c(Cl)c2c(Cl)c(C)c1-c1c(-c3ccc(F)cc3)sc3ncnc(c13)O[C@@H](C(=O)O)Cc1cc(ccc1OCc1ccnc(-c3cccc(S(=O)(=O)N4CCOCC4)c3)n1)OC[C@@H](CN1CCN(C)CC1)O2` [Example 149, (7R,16R)-19,23-dichloro-1-(4-fluorophenyl)-20,22-dimethyl-16-[(4-methylpiperazin-1-yl)methyl]-10-({2-[3-(morpholine-4-sulfonyl)phenyl]pyrimidin-4-yl}methoxy)-7,8,15,16-tetrahydro-18,21-etheno-13,9-(metheno)-6,14,17-trioxa-2-thia-3,5-diazacyclononadeca[1,2,3-cd]indene-7-carboxylic Acid], the results for the Ki at GST-MCL-1 (setting [3]) and on GST-MCL-1 (setting [4]) were 0.14 nM and 0.006 nM, respectively. For the same compound, the IC50 is 0.000363 µM in experiment [1] and 0.0014 µM in experiment [2].
Turning to `COCCOCCOCCOCc1ccc(-c2nccc(COc3ccc4cc3C[C@H](C(=O)O)Oc3ncnc5sc(-c6ccc(F)cc6)c(c35)-c3c(C)c(Cl)c(c(Cl)c3C)O[C@H](CN3CCN(C)CC3)CO4)n2)cc1COCCOCCOCCOC` [Example 152, (7R,16R)-10-({2-[3,4-bis(2,5,8,11-tetraoxadodecan-1-yl)phenyl]pyrimidin-4-yl}methoxy)-19,23-dichloro-1-(4-fluorophenyl)-20,22-dimethyl-16-[(4-methylpiperazin-1-yl)methyl]-7,8,15,16-tetrahydro-18,21-etheno-13,9-(metheno)-6,14,17-trioxa-2-thia-3,5-diazacyclononadeca[1,2,3-cd]indene-7-carboxylic Acid], the values for the Ki on GST-MCL-1 (setting [3]) and on GST-MCL-1 (setting [4]) were 0.041 nM and 0.011 nM, respectively. Also, the figures for the IC50 in experiment [1] and in experiment [2] were 0.00732 µM and 0.00593 µM, respectively.
The matching figures for `Cc1c2ccc(c1Cl)O[C@H](CN1CCN(C)CC1)COc1ccc(OCc3ccnc(-c4cccc(=O)n4C)n3)c(c1)C[C@H](C(=O)O)Oc1ncnc3sc(-c4ccc(F)cc4)c-2c13` [Example 28, (7R,16R)-19-chloro-1-(4-fluorophenyl)-20-methyl-10-{[2-(1-methyl-6-oxo-1,6-dihydropyridin-2-yl)pyrimidin-4-yl]methoxy}-16-[(4-methylpiperazin-1-yl)methyl]-7,8,15,16-tetrahydro-18,21-etheno-13,9-(metheno)-6,14,17-trioxa-2-thia-3,5-diazacyclononadeca[1,2,3-cd]indene-7-carboxylic Acid]: 0.027 nM, 0.021 nM, 0.00269 µM and 0.00583 µM.
With `COCCOCCOCCO[C@H]1CC[C@H](c2nccc(COc3ccc4cc3C[C@H](C(=O)O)Oc3ncnc5sc(C6CCC6)c(c35)-c3c(C)c(Cl)c(c(Cl)c3C)O[C@H](CN3CCN(C)CC3)CO4)n2)CC1` [Example 131, (7R,16R)-19,23-dichloro-1-cyclobutyl-10-({2-[(1r,4r)-4-{2-[2-(2-methoxyethoxy)ethoxy]ethoxy}cyclohexyl]pyrimidin-4-yl}methoxy)-20,22-dimethyl-16-[(4-methylpiperazin-1-yl)methyl]-7,8,15,16-tetrahydro-18,21-etheno-13,9-(metheno)-6,14,17-trioxa-2-thia-3,5-diazacyclononadeca[1,2,3-cd]indene-7-carboxylic Acid], the Ki on GST-MCL-1 (setting [3]) turned out to be 1.14 nM; at GST-MCL-1 (setting [4]) it was 0.024 nM. Further, the IC50 came out at 0.000367 µM in experiment [1] and 0.000585 µM in experiment [2].
Turning to `COCCOCCOCCOCC1CN(c2nccc(COc3ccc4cc3C[C@H](C(=O)O)Oc3ncnc5sc(-c6ccc(F)cc6)c(c35)-c3c(C)c(Cl)c(c(Cl)c3C)O[C@H](CN3CCN(C)CC3)CO4)n2)C1` [Example 94, (7R,16R)-19,23-dichloro-1-(4-fluorophenyl)-20,22-dimethyl-16-[(4-methylpiperazin-1-yl)methyl]-10-({2-[3-(2,5,8,11-tetraoxadodecan-1-yl)azetidin-1-yl]pyrimidin-4-yl}methoxy)-7,8,15,16-tetrahydro-18,21-etheno-9,13-(metheno)-6,14,17-trioxa-2-thia-3,5-diazacyclononadeca[1,2,3-cd]indene-7-carboxylic Acid], the results for the Ki at GST-MCL-1 (setting [3]) and at GST-MCL-1 (setting [4]) were 1.08 nM and 0.181 nM, respectively. Further, the IC50 in experiment [1] was found to be 0.00203 µM; in experiment [2] it was 0.00184 µM.
For the compound `Cc1c(Cl)c2c(Cl)c(C)c1-c1c(-c3ccc(F)cc3)sc3ncnc(c13)O[C@@H](C(=O)O)Cc1cc(ccc1OCc1ccnc(-c3ccc(S(C)(=N)=O)cc3)n1)OC[C@@H](CN1CCN(C)CC1)O2` (stereo partly drawn) [Example 30, (7R,16R)-19,23-dichloro-1-(4-fluorophenyl)-10-({2-[4-(S-methanesulfonimidoyl)phenyl]pyrimidin-4-yl}methoxy)-20,22-dimethyl-16-[(4-methylpiperazin-1-yl)methyl]-7,8,15,16-tetrahydro-18,21-etheno-13,9-(metheno)-6,14,17-trioxa-2-thia-3,5-diazacyclononadeca[1,2,3-cd]indene-7-carboxylic Acid], the Ki at GST-MCL-1 (setting [3]) was found to be 0.252 nM; at GST-MCL-1 (setting [4]), 0.033 nM. The half-inhibitory concentration (IC50) came to 0.00277 µM in experiment [1] and 0.00356 µM in experiment [2].
In the case of `COCCOCCOCCOCCN(CCOCCOCCOCCOC)c1nccc(COc2ccc3cc2C[C@H](C(=O)O)Oc2ncnc4sc(-c5ccc(F)cc5)c(c24)-c2c(C)c(Cl)c(c(Cl)c2C)O[C@H](CN2CCN(C)CC2)CO3)n1` [Example 109, (7R,16R)-10-({2-[bis(2,5,8,11-tetraoxatridecan-13-yl)amino]pyrimidin-4-yl}methoxy)-19,23-dichloro-1-(4-fluorophenyl)-20,22-dimethyl-16-[(4-methylpiperazin-1-yl)methyl]-7,8,15,16-tetrahydro-18,21-etheno-13,9-(metheno)-6,14,17-trioxa-2-thia-3,5-diazacyclononadeca[1,2,3-cd]indene-7-carboxylic Acid], the Ki at GST-MCL-1 (setting [3]) was found to be 2.43 nM; at GST-MCL-1 (setting [4]), 0.104 nM. Also, the IC50 in experiment [1] was determined as 0.0166 µM; in experiment [2] it was 0.0128 µM.
For `COCCOCCOCCOCCOCCOCC1(F)CC=C(c2nccc(COc3ccc4cc3C[C@H](C(=O)O)Oc3ncnc5sc(-c6ccc(F)cc6)c(c35)-c3c(C)c(Cl)c(c(Cl)c3C)O[C@H](CN3CCN(C)CC3)CO4)n2)CC1` (single isomer, unassigned) [Example 97, (7R,16R)-19,23-dichloro-10-({2-[(4S*)-4-fluoro-4-(2,5,8,11,14,17-hexaoxaoctadecan-1-yl)cyclohex-1-en-1-yl]pyrimidin-4-yl}methoxy)-1-(4-fluorophenyl)-20,22-dimethyl-16-[(4-methylpiperazin-1-yl)methyl]-7,8,15,16-tetrahydro-18,21-etheno-13,9-(metheno)-6,14,17-trioxa-2-thia-3,5-diazacyclononadeca[1,2,3-cd]indene-7-carboxylic Acid], in that order: 0.137 nM, 0.016 nM, 0.0006 µM and 0.000482 µM.
As for `Cc1c(Cl)c2c(Cl)c(C)c1-c1c(-c3ccc(F)cc3)sc3ncnc(c13)O[C@@H](C(=O)O)Cc1cc(ccc1OCc1ccnc(N3CCOCCOCCOCCOCC3)n1)OC[C@@H](CN1CCN(C)CC1)O2` [Example 115, (7R,16R)-19,23-dichloro-1-(4-fluorophenyl)-20,22-dimethyl-16-[(4-methylpiperazin-1-yl)methyl]-10-{[2-(1,4,7,10-tetraoxa-13-azacyclopentadecan-13-yl)pyrimidin-4-yl]methoxy}-7,8,15,16-tetrahydro-18,21-etheno-13,9-(metheno)-6,14,17-trioxa-2-thia-3,5-diazacyclononadeca[1,2,3-cd]indene-7-carboxylic Acid], the Ki on GST-MCL-1 (setting [3]) amounted to 0.862 nM; at GST-MCL-1 (setting [4]) it was 0.093 nM. The figures for the IC50 in experiment [1] and in experiment [2] were 0.000593 µM and 0.00113 µM, respectively.
For the compound `CO[C@@H]1CO[C@H]2[C@@H]1OC[C@H]2OCCOCCOC1CCC(c2nccc(COc3ccc4cc3C[C@H](C(=O)O)Oc3ncnc5sc(-c6ccc(F)cc6)c(c35)-c3c(C)c(Cl)c(c(Cl)c3C)O[C@H](CN3CCN(C)CC3)CO4)n2)CC1` (stereo partly drawn) [Example 138, (7R,16R)-19,23-dichloro-1-(4-fluorophenyl)-10-[(2-{(1r,4r)-4-[2-(2-{[(3R,3aR,6R,6aR)-6-methoxyhexahydrofuro[3,2-b]furan-3-yl]oxy}ethoxy)ethoxy]cyclohexyl}pyrimidin-4-yl)methoxy]-20,22-dimethyl-16-[(4-methylpiperazin-1-yl)methyl]-7,8,15,16-tetrahydro-18,21-etheno-13,9-(metheno)-6,14,17-trioxa-2-thia-3,5-diazacyclononadeca[1,2,3-cd]indene-7-carboxylic Acid], the Ki turned out to be 0.049 nM at GST-MCL-1 (read-out: MCL-1 Binding Ki (nM, 10% HS), in the presence of 10% HS (human serum)) and 0.007 nM on GST-MCL-1 (setting [4]). Further, the results for the IC50 in experiment [1] and in experiment [2] were 0.002 µM and 0.00221 µM, respectively.
Regarding `COCCOCCOCCOc1ccccc1-c1nccc(COc2ccc3cc2C[C@@H](C(=O)O)Oc2ncnc4sc(-c5ccc(F)cc5)c(c24)-c2ccc(c(Cl)c2C)O[C@H](CN2CCN(C)CC2)CO3)n1` (atropisomer, axis not shown) [Example 2, (7S,16R,21S)-19-chloro-1-(4-fluorophenyl)-10-{[2-(2-{2-[2-(2-methoxyethoxy)ethoxy]ethoxy}phenyl)pyrimidin-4-yl]methoxy}-20-methyl-16-[(4-methylpiperazin-1-yl)methyl]-7,8,15,16-tetrahydro-18,21-etheno-9,13-(metheno)-6,14,17-trioxa-2-thia-3,5-diazacyclononadeca[1,2,3-cd]indene-7-carboxylic Acid], the Ki on GST-MCL-1 (setting [3]) was determined as 76 nM; on GST-MCL-1 (setting [4]), 4.1 nM. For the same compound, the figures for the IC50 in experiment [1] and in experiment [2] were 0.21 µM and 0.276 µM, respectively.
